{
  "source": "patent US20260224524A1",
  "about": "“A PHARMACEUTICAL COMPOSITION TARGETING MUTANT P53 AND HER2” (DR DOZO LABORATORIES, priority 2023, published 2026)",
  "key": {"A549 cell line [1]": {"test_system": "A549 cell line", "assay": "Cell viability test using trypan blue exclusion method against A549", "type": "cell-based", "conditions": "Homo sapiens, 24 h", "procedure": "For cytotoxicity studies, Test sample was considered as 100% stock and serial two-fold dilutions were prepared from 10% to 0.156% using F-12K plain media for treatment. 10 mM stock of Standard Doxorubicin was diluted from 100 μM to 1.56 μM using F-12K plain media for treatment.\n(§1) A549 cells were cultured in F-12K medium with appropriate supplements in a humidified atmosphere of 5% CO2 at 37° C. until confluent. The viability of the cells was checked using conventional hemocytometer. Appropriate cell density per ml of media was prepared and seeded in a 96 well plate and incubated for 24 h at 37° C. with 5% CO2 to assess the cell viability.\n• 1. The cell count was adjusted to 5×10^5 cells/ml using complete media. To each well of the 96 well microtiter plate, 100 μl of the diluted cell suspension (50,000 cells/well) was added and incubated for 24 h at 37° C. in 5% CO2 atmosphere. • 2. After 24 h, the cells were treated with various concentrations of test compound and incubated at 37° C. for 24 h in 5% CO2 atmosphere. • 3. After incubation the test solutions in the wells were discarded. • 4. Cells were trypsinized and 20 μl of cell suspension was taken for viability counting. • 5. To this 20 μl of trypan blue dye was added and mixed well. • 6. The mixture was then loaded to haemocytometer at the end of the notch with the help of pipette. • 7. Haemocytometer was kept under the inverted microscope and scored in each quadrant. • 8. Cell counting wad done according to Neubauer's rules and noted. Percentage cell viability was calculated for the obtained data using below given formulae.\nViable cells=Average viable cells*2*10^3 cells/100 μl\n% Viability=Viable cells/Total cells×100"}, "A549 cell line [2]": {"test_system": "A549 cell line", "assay": "Cytotoxicity MTT assay against A549", "type": "cell-based", "conditions": "Homo sapiens; for inhibition at 1.563 µM / inhibition at 3.125 µM / inhibition at 6.25 µM / inhibition at 12.5 µM / inhibition at 25 µM / inhibition at 50 µM / inhibition at 100 µM: A549, A549", "procedure": "For cytotoxicity studies, Test sample was considered as 100% stock and serial two-fold dilutions were prepared from 10% to 0.156% using F-12K plain media for treatment. 10 mM stock of Standard Doxorubicin was diluted from 100 μM to […] using F-12K plain media for treatment.\nas §1\n• 1. The cell count was adjusted to 5×10^5 cells/ml using complete media. To each well of the 96 well microtiter plate, 100 μl of the diluted cell suspension (50,000 cells/well) was added and incubated for 24 h at 37° C. in 5% CO2 atmosphere. • 2. After 24 h, the cells were treated with various concentrations of test compound and incubated at 37° C. for 24 h in 5% CO2 atmosphere. • 3. After incubation, the test solutions in the wells were discarded and 100 μl of MTT (5 mg/10 ml of MTT in PBS) was added to each well. The plates were incubated for 4 h at 37° C. in 5% CO2 atmosphere. • 4. The supernatants were removed and 100 μl of DMSO was added and the plates were gently shaken to solubilize the formed formazan. The absorbance was measured using a microplate reader at a wavelength of 590 nm. • 5.\n% Inhibition=(OD of sample−OD of Control/OD of Control)×100"}, "[3]": {"conditions": "read-out: % Mean Cell Inhibition"}},
  "note": "Read-outs that look alike come from different tables or passages of the source.",
  "data": [
    {"molecule": "COc1cccc2c1C(=O)c1c(O)c3c(c(O)c1C2=O)C[C@@](O)(C(=O)CO)C[C@@H]3O[C@H]1C[C@H](N)[C@H](O)[C@H](C)O1", "note": "[Doxorubicin]", "values": [
      {"measurement": "viability at 1.563 µM", "setting": "A549 cell line [1]; 1.563 μM", "value": 85.5, "unit": "%"},
      {"measurement": "viability at 3.125 µM", "setting": "A549 cell line [1]; 3.125 μM", "value": 74.5, "unit": "%"},
      {"measurement": "viability at 6.25 µM", "setting": "A549 cell line [1]; 6.25 μM", "value": 66.1, "unit": "%"},
      {"measurement": "viability at 12.5 µM", "setting": "A549 cell line [1]; 12.5 μM", "value": 51.6, "unit": "%"},
      {"measurement": "viability at 25 µM", "setting": "A549 cell line [1]; 25 μM", "value": 36.5, "unit": "%"},
      {"measurement": "viability at 50 µM", "setting": "A549 cell line [1]; 50 μM", "value": 26.2, "unit": "%"},
      {"measurement": "viability at 100 µM", "setting": "A549 cell line [1]; 100 μM", "value": 11.1, "unit": "%"},
      {"measurement": "inhibition at 1.563 µM", "setting": "A549 cell line [2]; n = 1, read-out: % Inhibition", "value": 17.3, "unit": "%"},
      {"measurement": "inhibition at 1.563 µM", "setting": "A549 cell line [2]; n = 2, read-out: % Inhibition", "value": 19.6, "unit": "%"},
      {"measurement": "inhibition at 1.563 µM", "setting": "A549 cell line [2]; n = 3, read-out: % Inhibition", "value": 18.4, "unit": "%"},
      {"measurement": "inhibition at 1.563 µM", "setting": "A549 cell line [2]; [3]", "value": 18.4, "unit": "%"},
      {"measurement": "inhibition at 3.125 µM", "setting": "A549 cell line [2]; n = 1, read-out: % Inhibition", "value": 27.8, "unit": "%"},
      {"measurement": "inhibition at 3.125 µM", "setting": "A549 cell line [2]; n = 2, read-out: % Inhibition", "value": 25.6, "unit": "%"},
      {"measurement": "inhibition at 3.125 µM", "setting": "A549 cell line [2]; n = 3, read-out: % Inhibition", "value": 24.7, "unit": "%"},
      {"measurement": "inhibition at 3.125 µM", "setting": "A549 cell line [2]; [3]", "value": 26.1, "unit": "%"},
      {"measurement": "inhibition at 6.25 µM", "setting": "A549 cell line [2]; n = 1, read-out: % Inhibition", "value": 36.3, "unit": "%"},
      {"measurement": "inhibition at 6.25 µM", "setting": "A549 cell line [2]; n = 2, read-out: % Inhibition", "value": 35.9, "unit": "%"},
      {"measurement": "inhibition at 6.25 µM", "setting": "A549 cell line [2]; n = 3, read-out: % Inhibition", "value": 37.4, "unit": "%"},
      {"measurement": "inhibition at 6.25 µM", "setting": "A549 cell line [2]; [3]", "value": 36.5, "unit": "%"},
      {"measurement": "inhibition at 12.5 µM", "setting": "A549 cell line [2]; n = 1, read-out: % Inhibition", "value": 45.4, "unit": "%"},
      {"measurement": "inhibition at 12.5 µM", "setting": "A549 cell line [2]; n = 2, read-out: % Inhibition", "value": 44.2, "unit": "%"},
      {"measurement": "inhibition at 12.5 µM", "setting": "A549 cell line [2]; n = 3, read-out: % Inhibition", "value": 45.8, "unit": "%"},
      {"measurement": "inhibition at 12.5 µM", "setting": "A549 cell line [2]; [3]", "value": 45.1, "unit": "%"},
      {"measurement": "inhibition at 25 µM", "setting": "A549 cell line [2]; n = 1, read-out: % Inhibition", "value": 64.5, "unit": "%"},
      {"measurement": "inhibition at 25 µM", "setting": "A549 cell line [2]; n = 2, read-out: % Inhibition", "value": 65.2, "unit": "%"},
      {"measurement": "inhibition at 25 µM", "setting": "A549 cell line [2]; n = 3, read-out: % Inhibition", "value": 65.2, "unit": "%"},
      {"measurement": "inhibition at 25 µM", "setting": "A549 cell line [2]; [3]", "value": 65, "unit": "%"},
      {"measurement": "inhibition at 50 µM", "setting": "A549 cell line [2]; n = 1, read-out: % Inhibition", "value": 75.5, "unit": "%"},
      {"measurement": "inhibition at 50 µM", "setting": "A549 cell line [2]; n = 2, read-out: % Inhibition", "value": 74.4, "unit": "%"},
      {"measurement": "inhibition at 50 µM", "setting": "A549 cell line [2]; n = 3, read-out: % Inhibition", "value": 78.2, "unit": "%"},
      {"measurement": "inhibition at 50 µM", "setting": "A549 cell line [2]; [3]", "value": 76, "unit": "%"},
      {"measurement": "inhibition at 100 µM", "setting": "A549 cell line [2]; n = 1, read-out: % Inhibition", "value": 87.9, "unit": "%"},
      {"measurement": "inhibition at 100 µM", "setting": "A549 cell line [2]; n = 2, read-out: % Inhibition", "value": 90.3, "unit": "%"},
      {"measurement": "inhibition at 100 µM", "setting": "A549 cell line [2]; n = 3, read-out: % Inhibition", "value": 89.2, "unit": "%"},
      {"measurement": "inhibition at 100 µM", "setting": "A549 cell line [2]; [3]", "value": 89.2, "unit": "%"},
      {"measurement": "IC50", "setting": "A549 cell line [2]; A549, MTT, 24 h", "value": 20.3, "unit": "µM"}
    ]}
  ]
}
